Here are results for four molecules from patent publication EP0835604A1, “Halopropargyl compounds as marine antifouling agents” (ROHM AND HAAS COMPANY, priority 1996, dated 1998).

The test system of one assay is Artemia. In words: Toxicity to Artemia nauplii in ASTM sea water, 96 well plate serial dilution. The format is in vivo, Artemia salina. Conditions: 24 Hours; highest dilution in which all of the nauplii are dead; 25 °C. The protocol: Tests were conducted to determine the toxicity of the marine antifouling agents of the invention to Artemia. Artemia are indicative of hard fouling organisms.
Substitute ocean water was prepared following ASTM Method D 1141-90. The water was sterilized by filtration through a 0.22 micron cellulose acetate membrane filter. San Francisco Bay Brand® Artemia salina cysts were purchased from a local aquarium supply store. The cysts were hatched in a 250 mL Erlenmeyer flask. The Artemia cysts (0.2 g) were weighed into a sterilized flask. One hundred mL of sterile ASTM sea water was added to the flask. The flask was placed on an orbital shaker set at approximately 150 rotations per minute and 28 °C. After 24 hours, the contents of the flask were poured into a separatory funnel. The egg shells were separated from the Artemia nauplii (larvae), as the shells floated to the top. The nauplii were returned to the flask for another 24 hours shaking. The inoculum was prepared by pouring the nauplii into a crystallizing dish 48 hours after the cysts were originally placed on the shaker. After the nauplii congregated, they were taken up in a sterile serological pipette and transferred into another crystallizing dish. […] The number of nauplii in 3 to 4 wells was counted under a microscope. […]
Plates were read under a low magnification microscope 24 and 48 hours after the nauplii were added to the plate. […]

Assay [1] deals with Amphora coffeaeformis var. perpusilla. Kind of assay: Toxicity to Amphora: growth inhibition by chlorophyll a concentration. The format is cell-based. Conditions: 96 hours at 20 °C, % inhibition of the mean control; for EC 50: dose effective at preventing 50% growth; for EC 100: dose effective at preventing 100% growth. The method, then: Tests were conducted to determine the toxicity of the marine antifouling agents of the invention to Amphora. Amphora are indicative of soft fouling organisms. Amphora coffeaeformis var. perpusilla was isolated from a natural biofilm and cultured axenically in Guillard's F2 medium. A log phase culture of Amphora was diluted with the F2 medium to give a chlorophyll a concentration of 0.25 µg/mL. Chlorophyll a was measured by passing a measured volume (FV) of cell culture through a 3 µm pore, 25 mm diameter cellulose nitrate filter. The filter plus trapped algal cells was transferred to a glass tube. A measured volume (SV) of DMSO solvent was added to the glass tube. The tubes were incubated for 1.5 hours in darkness. After incubation, the absorbance of the sample was read in a spectrophotometer at 630 and 664 nm against a DMSO/filter blank. The chlorophyll a concentration can be calculated using the following equation: Chlorophylla(µg/mL) = 11.47 x Abs664 - 0.4 x Abs630 x SV/FV [formula] Ten mL of the diluted culture was pipetted into glass tubes. Ten µL of marine antifouling agent or, in the case of controls, DMF was added to each glass tube. The tubes were incubated on an illuminated orbital shaker at 20 °C for 96 hours before the chlorophyll a concentration of each tube was measured Three replicates of each treatment were used. The effects of marine antifouling agents are calculated as % inhibition of the mean control. The EC 50 is the dose effective at preventing 50% growth. The EC 100 is the dose effective at preventing 100% growth.

`CCCCCCCC[N+](CC#CBr)(CCCCCCCC)CCCCCCCC.O=S(=O)([O-])c1ccccc1` [Compound 18, trioctyl-(3-bromopropargyl)ammonium benzenesulfonate]: the “Artemia LC 100” value in the assay with Artemia was less than 8 ppm.

For `CCCCCCCCCCCCCC[N+]1(CC#CI)CCCC1.Cc1ccc(S(=O)(=O)[O-])cc1` [Compound 36, 1-tetradecyl-1-(3-iodopropargyl)-pyrrolidinium 4-methylbenzenesulfonate], in assay [1], the “EC 50” value is 1.9 ppm and the “EC 100” value turned out to be 5 ppm. Besides, the “Artemia LC 100” value in the assay on Artemia is 1 ppm.

Turning to `CC1(C)C(=O)N(Cc2ccccc2)C(=O)N1CC#CI` [Compound 138, 1-(3-iodopropargyl)-3-benzyl-5,5-dimethylhydantoin], in assay [1], the “EC 50” value was 2.5 ppm and the “EC 100” value was 20 ppm.

In the case of `O=c1oc2ccccc2n1CC#CI` [Compound 146, 3-(3-iodopropargyl)-2-benzoxazolone], in assay [1], the “EC 50” value is 3 ppm and the “EC 100” value amounted to 20 ppm.
